The numbers were not newly measured in patent US8895557B2, “Pharmaceutical formulations of ecteinascidin compounds” (Pharma Mar, S.A., Sociedad Unipersonal, priority 2004, dated 2014), which cites them from elsewhere.

In data set [1] the test system is human tumour xenografts, including melanoma and ovarian and breast carcinoma. The conditions noted are these: human tumour xenografts in athymic mice. On the technique in general: Xenograft models place foreign cells or tissue in a host animal.
Data set [2] concerns sarcoma and breast and ovarian carcinoma. Particulars: phase I, patients with sarcoma and breast and ovarian carcinoma.
For data set [3] the following is noted: mannitol/phosphate lyophilised product reconstituted with 5 ml Water for Injection, ambient temperature.

Structures are written as SMILES.

Consider `COc1cc2c(cc1O)CCN[C@]21CS[C@@H]2c3c(OC(C)=O)c(C)c4c(c3[C@H](COC1=O)N1C2C2c3c(cc(C)c(OC)c3O)C[C@@H]([C@@H]1O)N2C)OCO4` (stereo partly shown) [ET-743, Ecteinascidin 743], for which the aqueous solubility entry is reported as “limited aqueous solubility”. The antineoplastic activity result in data set [1] is recorded as “potent antineoplastic activity”. Further, in data set [2], the clinical responses entry was “promising responses were observed”. Besides, the “time for which the reconstituted solution is stable” value in data set [3] was “up to 24 h”.
